Measurements from ChEMBL document CHEMBL1201862, “PubChem BioAssay data set” (2004).
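Each compound was tested at five concentrations against cells in 96-well plates for 48 hours. At the GI50, growth is halved.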 Activity calls are given as the source filed them. Cut-off read from the data, not from the text of the source: active = GI50 up to about 1.1 µM and inactive = higher.

Legend:
Assay in all cases: NCI-60 cell line screen, 48 h
[1] = tested on: ACHN
[2] = tested on: OVCAR-5
[3] = tested on: HL-60
[4] = tested on: UACC-257
[5] = tested on: NCI-H226
[6] = tested on: DU-145
[7] = tested on: LOX IMVI
[8] = tested on: NCI-H23
[9] = tested on: HCT-116
[10] = tested on: SF-268
[11] = tested on: HT-29
[12] = tested on: T47D
[13] = tested on: MDA-MB-435
[14] = tested on: PC-3
[15] = tested on: Hs-578T
[16] = tested on: Malme-3M
[17] = tested on: A549
[18] = tested on: MOLT-4
[19] = tested on: UO-31
[20] = tested on: RXF 393

SMILES	GI50 [1]	GI50 [2]	GI50 [3]	GI50 [4]	GI50 [5]	GI50 [6]	GI50 [7]	GI50 [8]	GI50 [9]	GI50 [10]	GI50 [11]	GI50 [12]	GI50 [13]	GI50 [14]	GI50 [15]	GI50 [16]	GI50 [17]	GI50 [18]	GI50 [19]	GI50 [20]
Oc1[nH]c(Nc2ccc(Cl)cc2)nc2ncnc1-2	63.7 µM (inactive)	> 100 µM (inactive)	> 100 µM (inactive)	> 100 µM (inactive)	> 100 µM (inactive)	70.1 µM (inactive)	> 100 µM (inactive)	> 100 µM (inactive)	84.3 µM (inactive)	55 µM (inactive)	47.4 µM (inactive)	61.7 µM (inactive)	> 100 µM (inactive)	> 100 µM (inactive)	23.3 µM (inactive)	> 100 µM (inactive)	> 100 µM (inactive)	–	–	–
C=C([C@@]1(O)C[C@H]2[C@H](CCC2(OC)OC)[C@@H]2c3ccccc3O[C@@H]21)[Si](C)(C)C	> 100 µM (inactive)	> 100 µM (inactive)	25.5 µM (inactive)	> 100 µM (inactive)	> 100 µM (inactive)	> 100 µM (inactive)	> 100 µM (inactive)	–	> 100 µM (inactive)	> 100 µM (inactive)	> 100 µM (inactive)	69.8 µM (inactive)	> 100 µM (inactive)	> 100 µM (inactive)	> 100 µM (inactive)	–	> 100 µM (inactive)	> 100 µM (inactive)	76.7 µM (inactive)	–
CC(C)c1cccc(C(=O)NCCN(C)C)c1[N+](=O)[O-]	> 100 µM (inactive)	> 100 µM (inactive)	> 100 µM (inactive)	> 100 µM (inactive)	> 100 µM (inactive)	> 100 µM (inactive)	–	> 100 µM (inactive)	> 100 µM (inactive)	> 100 µM (inactive)	> 100 µM (inactive)	> 100 µM (inactive)	> 100 µM (inactive)	> 100 µM (inactive)	> 100 µM (inactive)	> 100 µM (inactive)	80.2 µM (inactive)	> 100 µM (inactive)	> 100 µM (inactive)	–
COc1cccc2c1-c1nc(N)c3c(OC)cccc3c1C2=O	–	> 100 µM (inactive)	19.6 µM (inactive)	> 100 µM (inactive)	48.3 µM (inactive)	> 100 µM (inactive)	59.7 µM (inactive)	24.9 µM (inactive)	> 100 µM (inactive)	68.4 µM (inactive)	28.8 µM (inactive)	> 100 µM (inactive)	> 100 µM (inactive)	> 100 µM (inactive)	22.2 µM (inactive)	> 100 µM (inactive)	> 100 µM (inactive)	53.5 µM (inactive)	45.1 µM (inactive)	–
c1ccc(-c2cccc(-c3ccccn3)n2)nc1 [TERPYRIDINE]	0.385 µM (active)	0.755 µM (active)	0.173 µM (active)	0.425 µM (active)	–	0.324 µM (active)	–	0.753 µM (active)	0.344 µM (active)	0.495 µM (active)	0.5 µM (active)	1.1 µM (active)	0.483 µM (active)	0.409 µM (active)	7.06 µM (inactive)	0.181 µM (active)	0.384 µM (active)	0.308 µM (active)	0.197 µM (active)	0.424 µM (active)
CN[C@H]1CC[C@]23C[C@]24CC[C@]2(C)[C@@H]([C@H](C)N(C)C)CC[C@@]2(C)[C@@H]4CC[C@H]3C1(C)C	15.6 µM (inactive)	21 µM (inactive)	10.8 µM (inactive)	15.1 µM (inactive)	16.5 µM (inactive)	14.4 µM (inactive)	5.32 µM (inactive)	15.7 µM (inactive)	11.4 µM (inactive)	14.4 µM (inactive)	2.85 µM (inactive)	14.6 µM (inactive)	14.1 µM (inactive)	9.08 µM (inactive)	16.8 µM (inactive)	17.1 µM (inactive)	17.4 µM (inactive)	16.5 µM (inactive)	11.9 µM (inactive)	–
O=C(Cc1nc2ncccc2[nH]c1=O)c1c[nH]c2ccccc12	16.5 µM (inactive)	24.2 µM (inactive)	32.1 µM (inactive)	19.5 µM (inactive)	–	17.5 µM (inactive)	20.7 µM (inactive)	21.6 µM (inactive)	22.2 µM (inactive)	14.9 µM (inactive)	23 µM (inactive)	17.6 µM (inactive)	15.9 µM (inactive)	16 µM (inactive)	18.6 µM (inactive)	17.6 µM (inactive)	20 µM (inactive)	26.4 µM (inactive)	17.7 µM (inactive)	22 µM (inactive)
CC1(C)Oc2ccc3c(=O)cc(-c4cccs4)oc3c2C1C(=O)O (stereo not given)	–	> 100 µM (inactive)	> 100 µM (inactive)	> 100 µM (inactive)	> 100 µM (inactive)	> 100 µM (inactive)	–	> 100 µM (inactive)	> 100 µM (inactive)	> 100 µM (inactive)	> 100 µM (inactive)	> 100 µM (inactive)	> 100 µM (inactive)	> 100 µM (inactive)	> 100 µM (inactive)	> 100 µM (inactive)	> 100 µM (inactive)	> 100 µM (inactive)	–	> 100 µM (inactive)
Cc1nc2n(c1/C=C1/C(=O)Nc3ccccc31)CCS2	75.3 µM (inactive)	> 100 µM (inactive)	32.1 µM (inactive)	33.3 µM (inactive)	–	53.8 µM (inactive)	72.4 µM (inactive)	47 µM (inactive)	33.6 µM (inactive)	81.8 µM (inactive)	38.4 µM (inactive)	25.8 µM (inactive)	14.8 µM (inactive)	26.5 µM (inactive)	39.5 µM (inactive)	56 µM (inactive)	51.9 µM (inactive)	30.9 µM (inactive)	27.5 µM (inactive)	18.7 µM (inactive)
Cc1cn(C2CC(N=[N+]=[N-])C(CO)O2)c(=O)n(CCCCBr)c1=O (stereo not given)	> 100 µM (inactive)	> 100 µM (inactive)	–	> 100 µM (inactive)	> 100 µM (inactive)	> 100 µM (inactive)	89.7 µM (inactive)	96.8 µM (inactive)	> 100 µM (inactive)	> 100 µM (inactive)	> 100 µM (inactive)	> 100 µM (inactive)	80.4 µM (inactive)	26.3 µM (inactive)	> 100 µM (inactive)	> 100 µM (inactive)	> 100 µM (inactive)	95.1 µM (inactive)	> 100 µM (inactive)	> 100 µM (inactive)
CCCc1cc(=O)oc2c(C=O)c(O)cc(O)c12	26.5 µM (inactive)	26.7 µM (inactive)	18.3 µM (inactive)	24.6 µM (inactive)	–	27.5 µM (inactive)	20 µM (inactive)	20.3 µM (inactive)	21.8 µM (inactive)	26.6 µM (inactive)	22.1 µM (inactive)	23.1 µM (inactive)	21.8 µM (inactive)	25.1 µM (inactive)	22.6 µM (inactive)	18.5 µM (inactive)	31.7 µM (inactive)	23.3 µM (inactive)	22.8 µM (inactive)	24 µM (inactive)
